This is an account of results in patent publication US4426377A, “Clavulanic acid derivatives their preparation and use” (Beecham Group Limited, priority 1977, dated 1984).

By MIC is commonly meant the lowest concentration that inhibits growth of the organism.

In one series the test system is Escherichia coli JT 39. Description: CD50 in intraperitoneal Escherichia coli JT 39 infection in mice, sub-cutaneous dosing (Demonstration 2). It counts as in vivo, mice infected with Escherichia coli. To be noted: with amoxycillin, E. coli JT 39 infection in mice. As to the method: b. […] Dosing was sub-cutaneous and 1 and 5 hours post infection.
The next series relates to Staph. Russell. Description: microliter MIC test, Staph. Russell. It counts as cell-based, Staphylococcus. The procedure: (§1) a. The antibacterial and synergistic activity of the title compound (referred to as "Synergist" in the Table) was determined by a conventional microliter method.
The test system of another series is Proteus C 889. Description: microliter MIC test, Proteus C 889. To be noted: for MIC of ampicillin with title compound: trailing end point. It counts as cell-based. As to the method: as §1
The subject of the next series is E. Coli JT 410. Briefly: microliter MIC test, E. coli JT 410. It counts as cell-based, Escherichia coli. The procedure:
as §1

Another series has as its system Kleb. E 70. Briefly: microliter MIC test, Kleb. E 70. It counts as cell-based, Klebsiella. As to the method: as §1
Series [1] can be described thus: signs of drug toxicity during the in-vivo tests. The settings on record: during the in-vivo tests in mice. As to the method:
(§2) a. Sub-cutanvenous administration: Groups of mice were infected inter peritoneally with Escherichia coli JT39. At 1 and 5 hours post infection the mice were treated with amoxycillin (Amox.) or with amoxycillin and synergist. The solutions were made up in phosphate buffer. The results were as follows:
(§3) b. Oral administration: Groups of mice were infected inter peritoneally with Escherichia coli JT39. At 1, 3 and 5 hours post-infection the mice were treated with amoxycillin or with amoxycillin and synergist. The solutions were made up in phosphate buffer.

Series [2] concerns gram negative bacteria such as Escherichia and Klebsiella and gram positive bacteria such as Staphylococcus. Briefly: summary of synergism with penicillins. To be noted: against gram negative and gram positive bacteria. As to the method: as §2, §3

For `CC(NC=O)OC/C=C1\O[C@@H]2CC(=O)N2[C@H]1C(=O)O` (some centres unmarked) [Example 9, Lithium 9-O-(1-formamidoethyl)clavulanate], the “effect on the effectiveness of amoxycillin” value in the series on Escherichia coli JT 39 is on record as “found to enhance the effectiveness of amoxycillin”.

As to `NCC(=O)NCOCC=C1OC2CC(=O)N2C1C(=O)O` (centres unmarked) [Example 11, 9-O-(Glycylaminomethyl)clavulanic acid], the “MIC of ampicillin with title compound/synergist” value in the series on Staph. Russell (Amp. + 1 μg/ml of the compound) came out at 1.25 µg/mL; in the series on Staph. Russell (Amp. + 5 μg/ml of the compound) it was 0.15 µg/mL; in the series on E. Coli JT 410 (Amp. + 5 μg/ml of the compound) it was 62.5 µg/mL; in the series on Kleb. E 70 (Amp. + 1 μg/ml of the compound), 6.25 µg/mL; with Kleb. E 70 (Amp. + 5 μg/ml of the compound), 1.5 µg/mL. Moreover, the MIC in the series on Staph. Russell (alone) stood at 8 µg/mL; in the series on Proteus C 889 (alone), 250 µg/mL; with E. Coli JT 410 (alone), 62.5 µg/mL; with Kleb. E 70 (alone), 62.5 µg/mL. Besides, the entries for the “MIC of ampicillin with title compound” value in the series with Proteus C 889 (Amp. + 1 μg/ml of the compound) and in the series on Proteus C 889 (Amp. + 5 μg/ml of the compound) were 8 µg/mL and 2 µg/mL, respectively.

Consider `O=C1CC(OC/C=C2\O[C@@H]3CC(=O)N3[C@H]2C(=O)O)N1` (some centres unmarked) [Example 2, Sodium 9-O-(azetidin-2'-on-4'-yl)clavulanate], for which, in series [1], the “signs of drug toxicity” value was “No signs of drug toxicity were observed”. Further, the “synergism with penicillins such as amoxycillin” value in series [2] is “effective synergist for penicillins such as amoxycillin against gram negative bacteria such as Escherichia and Klebsiella and gram positive bacteria such as Staphylococcus”.
